Measurements from US8710179B2, “Compositions and methods for concentrating and depleting microorganisms” (priority 2006, dated 2014).
In brackets after ≈: the same amount, converted by molar mass. Like-named read-outs stand apart in the source and are kept apart here. One block for each molecule: values may come before it.

Key:
[1] = Hydrophobicity estimation by RP-HPLC (percent acetonitrile at elution); type: physicochemical; conditions: RP-HPLC C18, linear acetonitrile gradient 1% per minute
Source text: In order to estimate the hydrophobicity of each polymer, the polymer was eluted with a linear gradient of acetonitrile (1% per minute) on an HPLC reversed-phase C18 column, and the percent of acetonitrile at which the polymer was eluted was used for hydrophobicity estimation (see, “ACN (%)” in Table 3 below).
“ACN (%)” represents the percent of acetonitrile in the RP-HPLC gradient mobile phase at which the polymer was eluted and which corresponds to the estimated hydrophobicity of the polymer (column 4 in Table 3);

B. cereus = type: cell-based
Source text: (§1) “MIC (μM)” represents the minimal inhibitory concentration of each tested polymer in μM for each bacterial strain, measured as described previously (columns 5-8 in Table 3); For bacterial strains, “Ec” represents E. coli; “Pa” represents P. aeruginosa; “Sa” represents S. aureus; and “Bc” represents B. cereus; and […]

E. coli [2] = type: cell-based
Source text: as §1

P. aeruginosa = type: cell-based
Source text: as §1

S. aureus = type: cell-based
Source text: as §1

E. coli [3] = experiment: Bacteria capture assay with polymer-loaded resin beads (incl. kinetic studies); type: binding, Escherichia coli ATCC 35218; conditions: for Bound E. coli (CFU/mg resin): polymer-loaded resin beads, 30 minutes incubation
Procedure: Various concentrations of bacteria in 500 μl luria bertani broth (LB) were shaken at room temperature in the presence of deprotected polymer-loaded beads (1.8 mg of polymer per sample) or protected polymer-loaded and unloaded beads as a control experiment in a centrifuge tube equipped with a 10 μm cutoff membrane (Whatman polypropylene mesh VectaSpin Micro). After 30 minutes incubation the samples were centrifuged at 21,000×g for 5 minutes to separate beads from unbound bacteria and further analyzed as follows.
(§2) To assess bacterial binding to the beads, filtrates were subjected to serial 10 fold dilutions and plated on LB agar plates. Cell counts were determined using the drop plate method (three 20 μl drops onto LB agar plates) after overnight incubation at 37° C. For the viability study, resins were spread directly on LB agar plates and incubated similarly. For kinetic studies, resins were incubated with 1×10^6 CFU/ml E. coli in LB for up to 15 minutes and filtered after the indicated time periods then plated for CFU count.
“Bound E. coli (CFU/mg resin)” represents the capturing capacity of bacterial binding per one milligram of polymer-loaded resin beads as assessed after 30 minutes incubation using the capture assay as presented herein (column 9 in Table 3).

GFP-expressing E. coli = experiment: Viability of polymer-captured bacteria, propidium iodide staining
Procedure: To establish the viability of polymer-captured bacteria, samples of polymer-captured GFP-expressing bacteria were incubated for 15 minutes at room temperature in a solution of 1 ml propidium iodide (Invitrogen, USA) in PBS (final concentration 0.06 mM), and thereafter centrifuged/washed in PBS and examined under a confocal fluorescent microscope using emission suitable for GFP and propidium iodide (excitation at 490 nm emission at 620 nm).

E. coli [4] = type: cell-based; remark: listed apart in the source
Procedure: as §2
The non-cytotoxicity of the beads-bound polymers was assessed by the viability of the polymer-captured bacteria. E. coli was incubated with beads-bound polymers (10^6 CFU/ml/mg resin), and after filtration, samples of the resins and the filtrates were plated on LB-agar individually.
FIG. 6 presents a series of images of LB-agar plates, showing the viability of the captured E. coli cells (1×10^6 CFU/ml) which were incubated for 30 minutes with deprotected (FIGS. 6A1 and 6A2) and Boc-protected (FIGS. 6B1 and 6B2) K(NC12K)7NH2-loaded resin beads, wherein FIGS. 6A1 and 6B1 show the plates of the plated filtrates and FIGS. 6A2 and 6B2 show the plates of filtered and plated beads.

[5] = Regeneration and stability of polymer-loaded beads (HPLC and MS after cleavage); type: physicochemical
Source text: To verify their stability and the regeneration thereof, polymer-loaded resin beads were submitted to multiple cycles of bacterial binding followed by their release with 70% ethanol. To assess the potential polymer degradation, the polymer was cleaved from the resin, analyzed by HPLC and identified by mass spectrometry.
Polymer-loaded beads were exposed to 10 consecutive cycles of bacterial binding and release with 70% ethanol, and were submitted to a cleavage reaction. The cleaved polymers were analyzed by HPLC and mass spectrometry before and after the repetitive cycles. The HPLC chromatograms were obtained over […] elution using a 1% gradient of acetonitrile in water (30% to 60%), and the fraction containing the polymer was subjected to mass spectrometry analysis.

bacteria = experiment: Antibacterial activity (MIC) of the resin-free polymer, strain not given; type: cell-based
Source text: as §1

E. coli [6] = experiment: Bacterial binding assay by real-time SPR on polymer-coated chip; conditions: 10^6 CFU/ml E. coli
Procedure: Purified resin-free polymers were immobilized onto the CM5 sensor chip (BIAcore, Uppsala, Sweden) via the terminal carboxyl group using 2-(2-pyridinyldithio)ethaneamine (PDEA). Carboxyl activation was achieved as follows. Morpholino-ethanesulfonic acid (MES buffer, 0.1 ml of 0.1 M) at pH 5.0 was used to solubilize 0.1 mg of the polymer. The solution was mixed with PDEA to final concentration of 22 mM and ethyl-3-(3-dimethylaminopropyl)-carbodiimide (EDC) to final concentration of 13 mM, incubated for 1 hour on ice and then placed in a dialysis tube (floating in buffer) to remove the excess reagents. In parallel, a 1:1 solution (20 μl) of EDC (0.4 M 1-ethyl-3-(3-dimethylaminopropyl)-carbodiimide in water):NHS (0.1 M N-hydroxysuccinimide in water) was injected at a flow rate of 10 μl/minute, to activate the chip surface. […]
Bacterial binding to the polymer was determined by surface plasmon resonance (SPR) using the optical biosensor system BIAcore 2000 (BIAcore, Uppsala, Sweden). […]
For real-time monitoring of bacterial capture the present inventors have developed a model system based on the SPR technology that normally enables binding measurements between immobilized receptor molecules and soluble ligands. […] In the example presented herein, the polymer was immobilized onto the sensor chip and bacteria were injected over the polymer-bound surface and their binding monitored in real-time. […]

Molecule: CCCCCCCCCCCC(=O)NC(CCCCN)C(=O)NCCCCCCCC(=O)NC(CCCCN)C(=O)NCCCCCCCC(=O)NC(CCCCN)C(=O)NCCCCCCCC(=O)NC(CCCCN)C(=O)NCCCCCCCC(=O)NC(CCCCN)C(=O)NCCCCCCCC(=O)NC(CCCCN)C(=O)NCCCCCCCC(=O)NC(CCCCN)C(=O)NCCCCCCCC(=O)NC(CCCCN)C(N)=O (stereo not shown) [C12K(NC8K)7NH2]
- ACN (%) at which the polymer was eluted (estimated hydrophobicity) [1]: 47.5%
- MIC (μM) Bc (B. cereus; resin-free polymer): 12.5 µM (≈ 27.7 µg/mL)
- MIC (μM) Ec (E. coli [2]; resin-free polymer): 3.1 µM (≈ 6.86 µg/mL)
- MIC (μM) Pa (P. aeruginosa; resin-free polymer): 6.2 µM (≈ 13.7 µg/mL)
- MIC (μM) Sa (S. aureus; resin-free polymer): 50 µM (≈ 111 µg/mL)
- amount of captured bacteria (E. coli [3]; polymer-loaded resin beads exposed to E. coli): approximately 10^3 CFUs
- Bound E. coli (CFU/mg resin) (E. coli [3]): 1 ± 0.5 × 10^3 CFU/mg resin

- ACN (%) at which the polymer was eluted (estimated hydrophobicity) [1]: 34%
- MIC (μM) Bc (B. cereus): >50 µM
- MIC (μM) Ec (E. coli [2]): >50 µM
- MIC (μM) Pa (P. aeruginosa): >50 µM
- MIC (μM) Sa (S. aureus): >50 µM
Molecule: NCCCC[C@H](NC(=O)CCCCCCCNC(=O)[C@H](CCCCN)NC(=O)CCCCCCCNC(=O)[C@H](CCCCN)NC(=O)CCCCCCCNC(=O)[C@H](CCCCN)NC(=O)CCCCCCCNC(=O)[C@H](CCCCN)NC(=O)CCCCCCCNC(=O)[C@H](CCCCN)NC(=O)CCCCCCCNC(=O)[C@H](CCCCN)NC(=O)CCCCCCCNC(=O)[C@@H](N)CCCCN)C(N)=O [K(NC8K)7NH2]
- Bound E. coli (CFU/mg resin) (E. coli [3]): 2 ± 0.6 × 10^2 CFU/mg resin

Molecule: NCCCC[C@H](NC(=O)CCCCCCCCCCCNC(=O)[C@H](CCCCN)NC(=O)CCCCCCCCCCCNC(=O)[C@H](CCCCN)NC(=O)CCCCCCCCCCCNC(=O)[C@H](CCCCN)NC(=O)CCCCCCCCCCCNC(=O)[C@H](CCCCN)NC(=O)CCCCCCCCCCCNC(=O)[C@H](CCCCN)NC(=O)CCCCCCCCCCCNC(=O)[C@H](CCCCN)NC(=O)CCCCCCCCCCCNC(=O)[C@@H](N)CCCCN)C(N)=O [K(NC12K)7NH2]
- MIC (μM) Bc (B. cereus): >50 µM
- MIC (μM) Ec (E. coli [2]): >50 µM
- MIC (μM) Pa (P. aeruginosa): >50 µM
- MIC (μM) Sa (S. aureus): >50 µM
- fraction of dead bacteria (GFP-expressing E. coli; polymer-captured bacteria, did not exceed control suspension): up to 12%
- viability of polymer-captured bacteria (GFP-expressing E. coli; propidium iodide exclusion): most polymer-captured bacteria were alive
- viable bacteria on the filtered and plated beads (E. coli [4]): remained alive
- stability of the polymer after repeated use [5]: remained unchanged
- MIC (bacteria): more than 50 μM

Molecule: H-KKKKKKKK-NH2 [Polymer K8NH2, reference compound]
- ACN (%) at which the polymer was eluted (estimated hydrophobicity) [1]: 20%
- MIC (μM) Bc (B. cereus; resin-free polymer): >50 µM
- MIC (μM) Ec (E. coli [2]; resin-free polymer): >50 µM
- MIC (μM) Pa (P. aeruginosa; resin-free polymer): >50 µM
- MIC (μM) Sa (S. aureus; resin-free polymer): >50 µM
- Bound E. coli (CFU/mg resin) (E. coli [3]): 9 ± 1 × 10^2 CFU/mg resin

Molecule: H-KKKKKKKKKKKKKKK-NH2 [Polymer K15NH2, reference compound]
- ACN (%) at which the polymer was eluted (estimated hydrophobicity) [1]: 22%
- MIC (μM) Bc (B. cereus; resin-free polymer): >50 µM
- MIC (μM) Ec (E. coli [2]; resin-free polymer): >50 µM
- MIC (μM) Pa (P. aeruginosa; resin-free polymer): >50 µM
- MIC (μM) Sa (S. aureus; resin-free polymer): >50 µM
- Bound E. coli (CFU/mg resin) (E. coli [3]): 1 ± 0.6 × 10^3 CFU/mg resin
- fold less efficient than the K(NC12K)7NH2-coated chip (E. coli [6]): more than 100 fold
- stability of the polymer after repeated use ([5]; 10 cycles of bacterial binding and release with 70% ethanol): deteriorated over time

Molecule: dermaseptin [reference compound]
- fraction of dead bacteria upon exposure (GFP-expressing E. coli; polymer-bound bacteria exposed 15 minutes at 12.5 μM): significantly increased
